The values that follow come from ChEMBL document CHEMBL1201862, “PubChem BioAssay data set” (2004).

Among the test systems are CAKI-1; OVCAR-4; SNB-75; NCI-H226; A549; NCI-H522; NCI-H460; LOX IMVI; A498; SK-OV-3; SW-620; IGROV-1; HCT-116; SK-MEL-5; KM12; MDA-MB-435; TK-10; NCI/ADR-RES; BT-549.
What all share (assay): growth of human tumour cells (NCI), 48 h

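Cultured in 96-well plates, cells were exposed to test compound for 48 hours across five concentrations. At the GI50, growth is halved.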 Active and inactive are the calls of the source. Cut-off read from the data, not from the text of the source: active = GI50 up to about 1.1 µM and inactive = higher.

Take `Cc1ccc(S(=O)(=O)N/N=C2\CC3C4CCC3C2C4)cc1` (stereo unspecified): the GI50 is > 100 µM (inactive) in the test with CAKI-1; > 100 µM (inactive) with OVCAR-4; 0.0859 µM (active) in the test with SNB-75; > 100 µM (inactive) in the test with NCI-H226; > 100 µM (inactive) in the test with A549; > 100 µM (inactive) with NCI-H522. Further, the GI50 in the test on NCI-H460, in the test with LOX IMVI, in the test on A498, with SK-OV-3, with SW-620 and in the test on IGROV-1 was > 100 µM (inactive) throughout. Also, the GI50 in the test with HCT-116, in the test with SK-MEL-5, in the test on KM12, in the test with MDA-MB-435, with TK-10 and with NCI/ADR-RES was > 100 µM (inactive) each time.

As to `Cc1[nH]c(=O)nc(NCCNCCO)c1C(=O)Nc1c2ccccc2nc2ccccc12`, the GI50 with CAKI-1, with OVCAR-4, with SNB-75, with NCI-H226, in the test on A549 and with NCI-H522 was > 100 µM (inactive) throughout. For the same molecule, the GI50 in the test with LOX IMVI, with A498, in the test on SK-OV-3, with SW-620, with IGROV-1 and in the test on HCT-116 was > 100 µM (inactive) in each case. Also, the GI50 in the test on SK-MEL-5, in the test with KM12, in the test on MDA-MB-435, with TK-10 and in the test on NCI/ADR-RES was > 100 µM (inactive) each time.

Consider `CC(C)/C(Cl)=N\OC(=O)Nc1ccc(F)cc1`, for which the GI50 is 18.2 µM (inactive) with NCI-H226; 17.4 µM (inactive) with A549; 11.2 µM (inactive) in the test with BT-549; 1.52 µM (inactive) in the test with NCI-H522; 18.1 µM (inactive) in the test with NCI-H460; 2.05 µM (inactive) with LOX IMVI. Also, the GI50 in the test on A498 was 14.2 µM (inactive); in the test on SK-OV-3, 17.8 µM (inactive); in the test on SW-620, 1.69 µM (inactive); in the test on IGROV-1, 14.8 µM (inactive); in the test with HCT-116, 6.61 µM (inactive); with SK-MEL-5, 13.6 µM (inactive). Besides, the GI50 was 16.6 µM (inactive) in the test on KM12, 4.8 µM (inactive) in the test on TK-10 and 6.9 µM (inactive) in the test with NCI/ADR-RES.

Take `CC(=O)OCC(=O)OC[C@H](OCc1ccccc1)[C@@H]1[C@H](OC(C)=O)C(=O)N1Cc1ccccc1`: the GI50 in the test with OVCAR-4, with SNB-75, in the test with NCI-H226, in the test with A549, in the test with LOX IMVI and in the test on A498 was > 100 µM (inactive) each time. Moreover, the GI50 in the test on SK-OV-3, in the test with SW-620, in the test with IGROV-1, in the test on HCT-116, in the test with SK-MEL-5 and in the test on KM12 was > 100 µM (inactive) throughout. Moreover, the GI50 with MDA-MB-435, in the test with TK-10 and in the test with NCI/ADR-RES was > 100 µM (inactive) each time.

Turning to `CC[n+]1cnc(N)c2c(-c3ccc(Cl)cc3)cn(-c3ccc(C)cc3)c21`, the GI50 in the test with CAKI-1 is 16 µM (inactive); in the test with OVCAR-4, 2.77 µM (inactive); in the test on SNB-75, 3.56 µM (inactive); in the test on NCI-H226 it was 13.2 µM (inactive); in the test on A549 it was 12.7 µM (inactive); with NCI-H522, 15.5 µM (inactive). Besides, the GI50 was 15.7 µM (inactive) with NCI-H460; 11.4 µM (inactive) with LOX IMVI; 11.4 µM (inactive) in the test with A498; 15.4 µM (inactive) with SK-OV-3; 15.3 µM (inactive) in the test on SW-620; 13.1 µM (inactive) in the test on IGROV-1. For the same molecule, the GI50 with HCT-116 is 9.4 µM (inactive); in the test with SK-MEL-5, 10.3 µM (inactive); in the test on KM12 it was 15.8 µM (inactive); with MDA-MB-435 it was 11.5 µM (inactive); in the test with TK-10, 17.6 µM (inactive); in the test with NCI/ADR-RES, 12.9 µM (inactive).

`CCN(CC)c1ccc2nc3ccc(/N=N/c4c(O)ccc5ccccc45)cc3[n+](-c3ccccc3)c2c1`: the GI50 in the test with CAKI-1, in the test with OVCAR-4, with SNB-75, in the test with NCI-H226, in the test on A549 and in the test on BT-549 was > 100 µM (inactive) throughout. In addition, the GI50 in the test with NCI-H522, in the test with SK-OV-3, with SW-620, in the test with IGROV-1, in the test with HCT-116 and with SK-MEL-5 was > 100 µM (inactive) throughout. Also, the GI50 in the test with KM12, in the test with MDA-MB-435, in the test on TK-10 and in the test on NCI/ADR-RES was > 100 µM (inactive) each time.

On to `Cc1ccc(SCC(CSCCO)OCn2cnc3c2N=C(N)NC32OCCO2)cc1` (stereo unspecified), for which the GI50 in the test on CAKI-1, with OVCAR-4, with SNB-75, with A549, in the test with NCI-H522 and with NCI-H460 was > 100 µM (inactive) in each case. Moreover, the GI50 in the test with LOX IMVI, in the test with A498, with SK-OV-3, with SW-620, in the test with IGROV-1 and in the test on HCT-116 was > 100 µM (inactive) each time. The GI50 in the test on SK-MEL-5, in the test with MDA-MB-435, in the test on TK-10 and in the test on NCI/ADR-RES was > 100 µM (inactive) in each case.

For `O=C(CSc1nc2ccc(I)cc2c(=O)n1Cc1ccccc1)NN1C(=O)CSC1c1ccccc1` (stereo unspecified), the GI50 is 3.13 µM (inactive) in the test with CAKI-1; 25.8 µM (inactive) with OVCAR-4; 34.2 µM (inactive) in the test on SNB-75; 26.9 µM (inactive) with NCI-H226; 35.2 µM (inactive) in the test on A549; 15.6 µM (inactive) in the test with NCI-H522. Moreover, the GI50 is 18 µM (inactive) with NCI-H460; 19.5 µM (inactive) in the test on LOX IMVI; 24.1 µM (inactive) in the test on SK-OV-3; 38 µM (inactive) in the test on SW-620; 22.6 µM (inactive) in the test with IGROV-1; 24 µM (inactive) with HCT-116. In addition, the GI50 is 18.5 µM (inactive) with SK-MEL-5; 22.5 µM (inactive) in the test on KM12; 27.2 µM (inactive) with MDA-MB-435; 27.4 µM (inactive) in the test with TK-10; 26.5 µM (inactive) in the test with NCI/ADR-RES.

For the molecule `C[C@@H](C1CC[C@H]2[C@@H]3[C@@H]4O[C@@H]4[C@@]4(O)CC=CC(=O)[C@]4(C)[C@H]3C[C@H](O)[C@]12C)[C@H]1C[C@]2(C)O[C@]2(C)C(=O)O1` (stereo partly specified), the GI50 in the test with CAKI-1, in the test with OVCAR-4, in the test on SNB-75, in the test with NCI-H226, in the test with A549 and in the test with NCI-H522 was > 100 µM (inactive) each time. For the same molecule, the GI50 with NCI-H460, with LOX IMVI, in the test with A498, in the test on SK-OV-3, with SW-620 and in the test with IGROV-1 was > 100 µM (inactive) each time. The GI50 in the test with HCT-116, in the test on SK-MEL-5, in the test on KM12, with MDA-MB-435, in the test on TK-10 and with NCI/ADR-RES was > 100 µM (inactive) in each case.

As for `O=C1OC(c2ccc([N+](=O)[O-])cc2)=N/C1=C\c1ccc(Cl)cc1`, the GI50 in the test on CAKI-1, in the test on OVCAR-4, with SNB-75, with NCI-H226, in the test on A549 and in the test with BT-549 was > 100 µM (inactive) throughout. Further, the GI50 in the test with NCI-H522, in the test on NCI-H460, in the test on LOX IMVI, in the test on A498, in the test with SK-OV-3 and in the test with SW-620 was > 100 µM (inactive) throughout. Further, the GI50 in the test on IGROV-1, in the test with HCT-116, in the test with SK-MEL-5, with KM12, in the test with MDA-MB-435 and in the test with TK-10 was > 100 µM (inactive) throughout.

As for `O=C1CC(c2cccc(Cl)c2)Oc2ccccc21` (stereo unspecified), the GI50 with CAKI-1 was 6.18 µM (inactive); in the test on OVCAR-4 it was 22.4 µM (inactive); with SNB-75 it was 22.6 µM (inactive); in the test on NCI-H226 it was 21.4 µM (inactive); with NCI-H460, 18.4 µM (inactive); with LOX IMVI, 20 µM (inactive). Moreover, the GI50 with A498 is 24.7 µM (inactive); with SK-OV-3, 20.9 µM (inactive); in the test with SW-620, 18.3 µM (inactive); in the test with IGROV-1 it was 15 µM (inactive); with HCT-116, 15.9 µM (inactive); in the test on SK-MEL-5, 17.9 µM (inactive). The GI50 in the test with KM12 is 15.7 µM (inactive); with MDA-MB-435, 17.4 µM (inactive); with TK-10, > 10 µM (inactive); in the test with NCI/ADR-RES it was 26.2 µM (inactive).

Take `COc1cc([C@@H]2c3cc4c(cc3C[C@H]3COC(=O)[C@@H]32)OCO4)cc(OC)c1OC` [DESOXYPODOPHYLLOTOXIN]: the GI50 was 0.00711 µM (active) with CAKI-1; 0.0655 µM (active) in the test with SNB-75; 0.00733 µM (active) in the test on NCI-H226; 0.00885 µM (active) in the test with A549; < 0.01 µM (active) with BT-549; 0.00695 µM (active) in the test on A498. The GI50 in the test with SK-OV-3 is 0.0803 µM (active); in the test with SW-620, 0.0091 µM (active); in the test with IGROV-1, 0.0103 µM (active); with SK-MEL-5, 0.00791 µM (active); with MDA-MB-435, 0.00261 µM (active); with TK-10, < 0.01 µM (active).
